“And” between values parts separate entries of the source, which are not always exact repeats. Equal entries are not always repeated.
Tests used:
[1] = Stability analysis (HPLC purity on storage) without BHT at various temperatures; type: physicochemical; details: for Purity (%): without BHT
Protocol: (§1) To check the purity of the 42-O-(heteroalkoxyalkyl) rapamycin compounds the following condition was followed by using High Performance Liquid Chromatography, Phenomenex Synergi Hydro-RP 80a (250×4.6 ) mm, 4 micron column. The mobile phase was 65:15:20 methanol:acetonitile:water mixture. The detector was set at 276 nm and the flow rate was adjusted to 1.5 mL/min. Column temperature was 40° C. 2.0 μg of 42-O-(heteroalkoxyalkyl) rapamycin compounds was injected onto the column in a volume of 5.0 μL methanol with run time of 50 min.
The purity loss was higher at increased temperature, but there was no apparent change in the impurity profile. Table 2A presents the purity of various 42-O-(heteroalkoxyalkyl) rapamycin compounds at different time intervals and temperature conditions.

[2] = system: human aorta smooth muscle cell cultures (hAoSMCs); test: In-vitro anti-proliferative potency, BrdU assay, human smooth muscle cells; type: cell-based; details: BrdU incorporation, over 5 orders of magnitude concentration, compared with rapamycin
Source text: (§2) In-vitro assessment of relative anti-proliferative effect of novel mTOR inhibitors 42-O-(oxetan-3-yl) rapamycin compound and 42-O-(tetrahydrofuran-3-yl) rapamycin compound with rapamycin was done on human and rabbit smooth muscle cell culture models. In which, human aorta and rabbit illiac artery smooth muscle cell cultures were subjected to increasing doses of 42-O-(oxetan-3-yl) rapamycin compound 42-O-(tetrahydrofuran-3-yl) rapamycin compound and rapamycin over 5 orders of magnitude concentration in the cell culture medium. The ability of the cell culture to reproduce was assessed after drug exposure by addition of a BromodeoxyUridine (BrdU) coloured reagent which causes a colour change in the surviving cells. The extent of colour development was quantified at 450 nm wavelength using a spectrophotometer microplate reader (BMG Labtech, FLUOstar OPTIMA). […] On the contrary, lower OD values reflect less incorporation on BrdU and a shift towards cell inhibition. Growth inhibition was calculated by subtracting positive control OD values, which represent 100% uninhibited growth.

rabbit blood [3] = test: In-vitro haemolysis test; type: cell-based; details: for Haemolytic Index, Mean ± S. D.: mean of three test extracts, rabbit blood, 4 hrs
Protocol: Haemolysis test was conducted on rabbit blood by in-vitro method to check the haemolytic effect of 42-O-(tetrahydrofuran-3-yl) rapamycin (Merilimus-1) compound and 42-O-(oxetan-3-yl) rapamycin (Merilimus-2) compound. In this study the extracts of the test substances in triplicate were kept in contact with rabbit blood and incubated for 4 hrs. The concentration of plasma haemoglobin liberated in supernatant was calculated by comparing with absorbance of the standard solution in a spectrophotometer at 540 nm.

rabbit blood [4] = test: Haemocompatibility test (thrombosis, coagulation, platelet count, leucocyte count); type: cell-based
Protocol: Haemocompatibility test is conducted to evaluate biological safety of the blood contacting 42-O-([…]) rapamycin and 42-O-(oxetan-3-yl) rapamycin compounds for the medical device. The interaction of test substance with rabbit blood was checked for thrombosis, coagulation, platelet count and leucocyte count.

[5] = system: L-929 (ATCC cell lines CCL-1, NCTC clone 929) Mus musculus mouse fibroblast cells; test: In-vitro cytotoxicity test by extraction method; type: cell-based; details: extract in contact with L-929 cells for 48 hours
Protocol: In-vitro assessment was done to check the cytotoxic or necrotic potential of the 42-O-(tetrahydrofuran-3-yl) rapamycin and 42-O-(oxetan-3-yl) rapamycin compounds by extraction method. In this study extracts of test substance were kept in contact with a multiple culture of L-929 (ATCC cell lines CCL-1, NCTC clone 929) Mus musculus mouse fibroblast cells for 48 hours. The cells were examined microscopically to assess the changes for its general morphology, vacuolization, detachment, cell lysis and membrane integrity.

[6] = system: rabbit illiac artery smooth muscle cell cultures (RbIASMCs); test: In-vitro anti-proliferative potency, BrdU assay, rabbit smooth muscle cells; type: cell-based; details: BrdU incorporation, over 5 orders of magnitude concentration, compared with rapamycin
Source text: as §2

[7] = Stability analysis (HPLC purity on storage) with various concentrations of BHT at 40° C.; type: physicochemical; details: sealed container
Protocol: as §1
The inventors have also conducted the stability study of various 42-O-(heteroalkoxyalkyl) rapamycin compounds as mentioned above using various BHT concentrations. The study was conducted at 40° C. temperature in sealed container for 8 weeks.
42-O-(heteroalkoxyalkyl) rapamycin compounds obtained as per procedure described in Example 1 are respectively added with anti-oxidant, namely Butylated Hydroxytoluene (or BHT), at a concentration of 0.1%, 0.2%, 0.5%, and 1.0% (w/w) based on 100% (w/w) of 42-O-(heteroalkoxyalkyl) rapamycin compounds in sealed container to study the stability at 40° C. temperature. […] The purity data with the addition of different amounts of anti-oxidant as added to 42-O-(tetrahydrofuran-3-yl) rapamycin compound, 42-O-(oxetan-3-yl) rapamycin compound and 42-O-(tetrahydropyran-3-yl) rapamycin compound checked at different time intervals are summarized in Table 2B as below mentioned.

[8] = test group, individual rabbits No. 1-3

For `COC1CC(C[C@H](C)[C@@H]2CC(=O)[C@H](C)/C=C(\C)C(O)[C@@H](OC)C(=O)[C@H](C)C[C@H](C)/C=C/C=C/C=C(\C)[C@@H](OC)C[C@@H]3CC[C@@H](C)[C@@](O)(O3)C(=O)C(=O)N3CCCC[C@H]3C(=O)O2)CCC1OC1CCOC1` (some centres unmarked) [Merilimus-1, 42-O-(tetrahydrofuran-3-yl) rapamycin], the “Stability (in words)” value ([1]; purified compounds without anti-oxidant) was “more thermally stable”, the “Purity (%)” value ([1]; 5° C. (sealed), 00 weeks after synthesis) was 98.6% and the “Purity (%)” value ([1]; 5° C. (sealed), 02 weeks after synthesis) was 97.8%. The “Purity (%)” value ([1]; 5° C. (sealed), 04 weeks after synthesis) was 97.0%, the “Purity (%)” value ([1]; 5° C. (sealed), 08 weeks after synthesis) was 96.7% and the “Purity (%)” value ([1]; 5° C. (sealed), 12 weeks after synthesis) was 96.3%. The “Purity (%)” value ([1]; 25° C. (sealed), 00 weeks after synthesis) was 98.7%, the “Purity (%)” value ([1]; 25° C. (sealed), 02 weeks after synthesis) was 97.6% and the “Purity (%)” value ([1]; 25° C. (sealed), 04 weeks after synthesis) was 96.9%. The “Purity (%)” value ([1]; 25° C. (sealed), 08 weeks after synthesis) was 96.7%, the “Purity (%)” value ([1]; 25° C. (sealed), 12 weeks after synthesis) was 94.1% and the “Purity (%)” value ([1]; 25° C. (unsealed), 00 weeks after synthesis) was 98.4%. For the same compound, the “Purity (%)” value ([1]; 25° C. (unsealed), 02 weeks after synthesis) was 97.1%, the “Purity (%)” value ([1]; 25° C. (unsealed), 04 weeks after synthesis) was 96.7% and the “Purity (%)” value ([1]; 25° C. (unsealed), 08 weeks after synthesis) was 95.2%. The “Purity (%)” value ([1]; 25° C. (unsealed), 12 weeks after synthesis) was 93.6%, the “Purity (%)” value ([1]; 40° C. (sealed), 00 weeks after synthesis) was 98.6% and the “Purity (%)” value ([1]; 40° C. (sealed), 02 weeks after synthesis) was 96.7%. The “Purity (%)” value ([1]; 40° C. (sealed), 04 weeks after synthesis) was 96.3%, the “Purity (%)” value ([1]; 40° C. (sealed), 08 weeks after synthesis) was 94.7% and the “Purity (%)” value ([1]; 40° C. (sealed), 12 weeks after synthesis) was 93.5%. The “Growth suppression of smooth muscle cells (in words)” value [2] was “more effectively inhibited growth of smooth muscle cells than rapamycin”, the “Haemolytic Index” value (rabbit blood [3]; individual test extracts 1-3, rabbit blood, incubated 4 hrs, = Haemoglobin released/Haemoglobin present × 100) was 1.4 and 1.7 and 1.9 and the “Haemolytic Index, Mean ± S. D.” value (rabbit blood [3]) was 1.7 ± 0.02. For the same compound, the “Haemolytic Index, Mean ± S. D.” value (rabbit blood [3]; listed as 42-O-(tetrahydrofuran-3-yl) rapamycin) was 1.7, the “Haemolytic nature (in words)” value (rabbit blood [3]; on the basis of haemolytic index) was “non-haemolytic” and the “Haemocompatibility (in words)” value (rabbit blood [4]; all haematological findings compared to control) was “haemocompatible”. The “Coagulation (PTT in sec.)” value (rabbit blood [4]; [8]) was 36 sec. (2×) and 39 sec, the “Differential leucocyte count: Basophile %” value (rabbit blood [4]; [8]) was 00% and the “Differential leucocyte count: Eosinophil %” value (rabbit blood [4]; [8]) was 01%. For the same compound, the “Differential leucocyte count: Lymphocyte %” value (rabbit blood [4]; [8]) was 43% and 50% (2×), the “Differential leucocyte count: Monocyte %” value (rabbit blood [4]; [8]) was 01% (2×) and 02% and the “Differential leucocyte count: Neutrophil %” value (rabbit blood [4]; [8]) was 55% and 47% and 48%. For the same compound, the “Distribution of cells: Platelets” value (rabbit blood [4]; [8]) was “Normal”, the “Distribution of cells: RBC” value (rabbit blood [4]; [8]) was “Normal” and the “Distribution of cells: WBC” value (rabbit blood [4]; [8]) was “Normal”. For the same compound, the Leucocyte count (rabbit blood [4]; [8]) was 7.3 Thousand/cmm and 6.8 Thousand/cmm and 7.4 Thousand/cmm, the Platelet count (rabbit blood [4]; [8]) was 4.9 lakhs/cmm and 4.6 lakhs/cmm and 4.5 lakhs/cmm and the Thrombosis (rabbit blood [4]; [8]) was “Nil”. For the same compound, the “Toxic effect on cells (in words)” value [5] was “did not reveal any toxic effect on cells”, the “Growth suppression of smooth muscle cells (in words)” value [6] was “more effectively inhibited growth of smooth muscle cells than rapamycin” and the “Purity (%)” value ([7]; BHT 0.0% (w/w), 0 week) was 98.6%. For the same compound, the “Purity (%)” value ([7]; BHT 0.0% (w/w), 2 weeks) was 96.7%, the “Purity (%)” value ([7]; BHT 0.0% (w/w), 4 weeks) was 96.3% and the “Purity (%)” value ([7]; BHT 0.0% (w/w), 8 weeks) was 94.7%. The “Purity (%)” value ([7]; BHT 0.1% (w/w), 0 week) was 98.6%, the “Purity (%)” value ([7]; BHT 0.1% (w/w), 2 weeks) was 98.5% and the “Purity (%)” value ([7]; BHT 0.1% (w/w), 4 weeks) was 98.5%. The “Purity (%)” value ([7]; BHT 0.1% (w/w), 8 weeks) was 98.4%, the “Purity (%)” value ([7]; BHT 0.2% (w/w), 0 week) was 98.5% and the “Purity (%)” value ([7]; BHT 0.2% (w/w), 2 weeks) was 98.5%. The “Purity (%)” value ([7]; BHT 0.2% (w/w), 4 weeks) was 98.5%, the “Purity (%)” value ([7]; BHT 0.2% (w/w), 8 weeks) was 98.4% and the “Purity (%)” value ([7]; BHT 0.5% (w/w), 0 week) was 98.5%. For the same compound, the “Purity (%)” value ([7]; BHT 0.5% (w/w), 2 weeks) was 98.4%, the “Purity (%)” value ([7]; BHT 0.5% (w/w), 4 weeks) was 98.4% and the “Purity (%)” value ([7]; BHT 0.5% (w/w), 8 weeks) was 98.3%. The “Purity (%)” value ([7]; BHT 1.0% (w/w), 0 week) was 98.5%, the “Purity (%)” value ([7]; BHT 1.0% (w/w), 2 weeks) was 98.4% and the “Purity (%)” value ([7]; BHT 1.0% (w/w), 4 weeks) was 98.4%. For the same compound, the “Purity (%)” value ([7]; BHT 1.0% (w/w), 8 weeks) was 98.3% and the “Purity after eight-weeks of storage” value ([7]; with various concentrations of BHT (concentration not given)) was 98.3%.

From patent publication US9321782B2, “Process for preparation of novel 42-O-(heteroalkoxyalkyl) rapamicin compounds with anti-proliferative properties” (MERIL LIFE SCIENCES PVT. LTD., priority 2010, dated 2016)
